Patent US20100129289A1, “COMPOSITIONS AND METHODS FOR THE DETECTION OF VULNERABLE PLAQUE” (THE OHIO STATE UNIVERSITY RESEARCH FOUNDATION, priority 2006, published 2010)
“Also recorded” adds a separate entry of the source. Blank lines part the entries; values can stand above or below the substance they belong to. Ends that are not written are not given here. * marks the point of attachment. Biotin = O=C1N[C@H]2[C@H](CS[C@H]2CCCCC(=O)*)N1

Experiments:
[1] = test system: WHHL rabbit aortic tissue (intima); test: Resected WHHL rabbit aortic tissue peptide binding assay; details: for positive binding / staining on WHHL tissue samples: five to seven tissue samples per peptide; for staining on WHHL tissue, original versus randomized sequence: one experiment on a WHHL rabbit, FIGS. 14 and 15; for staining on WHHL aortic tissue: overall statement across experiments; for staining of corresponding WHHL tissue samples: sections FIG. 10(c) (peptide 4) and FIG. 11(a) (peptide 3); for staining of individual WHHL tissue sections: sections FIG. 10(d) (peptide 4) and FIG. 11(b) (peptide 3)
Experimental: (§1) Experiments were performed to determine if the synthesized peptides could bind to the intima of the WHHL (diseased) rabbits but not to the NZW (control) rabbits. The following procedure is shown schematically in FIG. 2. The animals were anesthetized, injected with 0.7-1.0 mL heparin, and perfused with 200-300 mL Hanks buffered salt solution containing 1% BSA. A segment of the aorta comprising the aortic arch to the bifurcation of the aorta in the lower abdomen was removed and placed in a buffer solution of Hanks w/1% BSA and 1% protease inhibitor cocktail (Sigma, P8340). The aorta segments were opened longitudinally and sliced into individual pieces approximately 1-2 mm^2 each. These pieces were then placed into tubes containing individual peptides at a concentration of 5 μg/mL in the same buffer solution described above.
(§2) The tissue sections were incubated with individual peptides for 45-60 minutes at room temperature. Samples were washed 3× with PBS followed by incubation with SA-HRP or anti-FLAG-HRP in the same buffer for 45-60 minutes at room temperature. After another 3× washing, the samples were incubated with DAB for 30 minutes in the same buffer. After a final round of washing, tissue samples were imaged with a dissecting microscope and analyzed for the presence of brown staining on the endothelial surface. […] Some tissue sections received no peptide incubation; rather they were exposed only to SA-HRP or anti-FLAG-HRP as a control.

[2] = test system: WHHL rabbit aortic tissue (intima); test: as above
[3] = test system: aorta of ApoE knockout mice; test: ApoE knockout mice in vivo peptide binding assay; parameters: species or system mouse; details: 1 hour circulation, SA-HRP or anti-FLAG-HRP with DAB
Experimental: In the peptide binding assays, individual peptides are injected into an anesthetized mouse and allowed to circulate in vivo for 1 hour. Note that this is different from the WHHL/NZW binding assays where the aorta is first resected and then incubated with peptide. The animal is then fixed via cardiac perfusion with 4% formaldehyde, and the aorta is removed to test for binding of the peptide. The detection assay is the same assay described herein: either SA-HRP or anti-FLAG-HRP is added to the solution containing the resected tissue, followed by the addition of the DAB substrate, after which the tissue samples are sectioned and imaged.

[4] = test system: frozen WHHL aorta tissue sections; test: Direct staining on frozen WHHL rabbit tissue sections; assay type: binding; details: for staining of frozen WHHL aorta tissue sections: peptide 1 μg/mL, 4 μm sections, FIG. 22
Experimental: Some of the resected WHHL and NZW aortic arch tissues were frozen and sectioned into 4 μm slices. Binding assays were performed on these frozen sections in a similar manner to that described herein. Sections were thawed and incubated with blocking buffer (Hanks w/1% BSA) for 30 minutes. Individual peptides were added to the slides in blocking buffer at a concentration of 1 μg/mL. After 45 minutes of incubation, the slides were washed and either SA-HRP or anti-FLAG-HRP, depending on the modification of the peptides, was added at the recommended concentration and allowed to incubate for 1 hour. The slides were washed again, and the DAB substrate was added and incubated for 30 minutes while looking for brown color development. After washing away the DAB, the tissue samples were fixed with 10% buffered formalin for 10 minutes followed by counterstaining with hemotoxylin. The slides were then mounted with permount and glass coverslips for imaging. The standard SA-HRP and anti-FLAG-HRP controls were performed for these experiments as well.

[5] = test system: NZW rabbit aortic tissue (intima); test: Resected NZW rabbit aortic tissue peptide binding assay; details: for staining / binding on NZW tissue: peptide 9 at 1× concentration, FIG. 12
Experimental: as §1, §2

lipid-loaded HAECs = test: Lipid-loaded HAEC peptide binding assay; assay type: cell-based, human; details: peptide 1, 5 or 100 μg/mL; SA-HRP or anti-FLAG-HRP with DAB
Experimental: Human aortic endothelial cells (HAECs) were loaded with acetylated low-density lipoprotein as described herein. Peptide binding assays were performed 24 hours after the third lipid-loading of the cells. Control cells grown in the standard media without added lipid were cultured for the same amount of time as the lipid-loaded HAECs.
The general procedure for the peptide binding assays was conducted as follows (see FIG. 1). Variations on this method will be discussed as well. Both the lipid- and non-lipid-loaded cells were imaged prior to the assays to verify morphological differences between the two conditions of the cells. The media was aspirated and cells were washed 3× with cold wash buffer (PBS w/Ca^2+, […] with 2% FBS), followed by a 5 minute incubation on ice to minimize internalization of peptides. Cold blocking buffer (PBS w/1% BSA) was added to the cells for 15 minutes to prevent nonspecific binding. Peptides were then added to the cells in cold blocking buffer at 1, 5, or 100 μg/mL and incubated for 1 hour on ice. Following incubation, cells were washed 3×, and either streptavidin horseradish peroxidase (SA-HRP) or anti-FLAG horseradish peroxidase (anti-FLAG-HRP) was added to the cells in cold blocking buffer at the recommended concentrations provided by the manufacturers. […]

[6] = test system: atherosclerotic lesion endothelium of ApoE knockout mice; details: mouse; cited from earlier work
[7] = 10× concentration (˜100 μg/mL) versus 1×, FIG. 13

positive binding / staining on WHHL tissue samples ([1]; Exp223 (FIG. 21)): some staining
Substance: NADNQMTWRHVL [Peptide 38]

positive binding / staining on WHHL tissue samples ([1]; Exp219 (FIG. 20)): some staining
Substance: APHYLKTAPPPN [Peptide 28]

binding to lipid-loaded HAECs (brown staining) (lipid-loaded HAECs): negative result for binding
Substance: CDSIKWPNC [Peptide 23]

positive binding / staining on WHHL tissue samples ([1]; Exp223 (FIG. 21)): some staining
Substance: TDTTMGQVHRHP [Peptide 37]

positive binding / staining on WHHL tissue samples ([1]; Exp223 (FIG. 21)): some staining
Substance: CHPASSPQC [Peptide 34]

positive binding / staining on WHHL tissue samples ([1]; Exp201 (FIG. 18)): showed staining on one tissue sample
Substance: CNKNSIPHC [Peptide 20]

positive binding / staining on WHHL tissue samples ([1]; Exp201 (FIG. 18)): showed staining on one tissue sample
positive binding / staining on WHHL tissue samples ([1]; Exp219 (FIG. 20)): some staining
Substance: SSSKMQAAHQLP [Peptide 24]

positive binding / staining on WHHL tissue samples ([1]; Exp223 (FIG. 21)): some staining
Substance: NLTSLTQGSAML [Peptide 39]

positive binding / staining on WHHL tissue samples ([1]; Exp217 (FIG. 19)): stained
Substance: KSLSRHDHIHHH [Peptide 16]

binding to lipid-loaded HAECs (brown staining) (lipid-loaded HAECs): negative result for binding
Substance: TAPHHSTPANVP [Peptide 17]

The remaining lines, values behind:

Substance: SIGYPLP [Peptide 13, reference compound]
positive binding / staining on WHHL tissue samples ([1]; Exp217 (FIG. 19)): stained

Substance: Biotin-PPEEWSPVTHLL [Peptide 3R]
staining on WHHL tissue, original versus randomized sequence [1]: much less staining compared to the original sequences

Substance: TQTPIKHHLLKE [Peptide 9]
binding to regions of plaque, dependence on dose ([1]; WHHL aortic tissue): dose-dependent manner
location of staining in sectioned WHHL aorta ([1]; histological sections, Hoechst stain, 400×, FIG. 16): localized to the intimal layer, with no infiltration into the plaque region; also recorded: localized to the intimal layer of the aorta
staining over plaque versus non-plaque regions of WHHL aorta ([1]; histological sections, FIG. 17): present on intima covering regions of plaque but not over non-plaque regions; also recorded: seen over plaque-rich regions
staining on WHHL tissue, original versus randomized sequence [1]: stronger than the staining seen from peptide 9R
staining on WHHL aortic tissue [1]: consistently shows staining
staining on WHHL aortic tissue relative to anti-FLAG-HRP control sections ([2]; 1× concentration (˜10 μg/mL), FIGS. 8 and 9, two WHHL rabbits): more total staining, and the staining is very distinct
staining on WHHL tissue at 10-fold increased concentration [2, 7]: increases dramatically
binding to aorta after in vivo circulation of peptide [3]: did not yield positive results
binding to frozen tissue samples ([4]; frozen WHHL and NZW tissue): showed binding
staining of frozen WHHL aorta tissue sections [4]: strong brown staining on the surface; also recorded: stains the intimal surface
staining on NZW tissue at 10-fold increased concentration [5, 7]: remains the same as the staining seen with the 1× concentration
staining / binding on NZW tissue [5]: some slight staining; also recorded: light, distinct staining pattern; also recorded: slight background staining

Substance: YITPYAHLRGGN [Peptide 4]
staining on WHHL aortic tissue [1]: above-average reproducible staining
staining of corresponding WHHL tissue samples [1]: very little, if any, brown staining
staining of individual WHHL tissue sections [1]: good staining
staining / binding on NZW tissue [5]: no binding

Substance: CKSDANSHC [Peptide 2]
positive binding / staining on WHHL tissue samples ([1]; Exp217 (FIG. 19)): stained

Substance: CNHRYMQMC [Peptide 11, reference compound]
positive binding / staining on WHHL tissue samples ([1]; Exp201 (FIG. 18)): showed staining on one tissue sample
binding to atherosclerotic lesion endothelium of ApoE knockout mice in vivo [6]: shown to bind

Substance: CKQSPPSMC [Peptide 14]
positive binding / staining on WHHL tissue samples ([1]; Exp217 (FIG. 19)): stained

Substance: CKQSFEKSC [Peptide 1]
positive binding / staining on WHHL tissue samples ([1]; Exp201 (FIG. 18)): showed staining on one tissue sample

Substance: SSLPAPPWPLRG [Peptide 6]
positive binding / staining on WHHL tissue samples ([1]; Exp201 (FIG. 18)): showed staining on one tissue sample
positive binding / staining on WHHL tissue samples ([1]; Exp217 (FIG. 19)): slight staining

Substance: TPLEVHPESLPW [Peptide 3]
staining on WHHL aortic tissue [1]: above-average reproducible staining
staining of corresponding WHHL tissue samples [1]: very little, if any, brown staining
staining of individual WHHL tissue sections [1]: best staining
staining / binding on NZW tissue [5]: no binding

Substance: CVMPGLKNC [Peptide 10]
positive binding / staining on WHHL tissue samples ([1]; Exp201 (FIG. 18)): showed staining on one tissue sample

Substance: ILTHEHTLPKQ-FLAG (ILTHEHTLPKQ-{FLAG}) [Peptide 9R]
staining of frozen WHHL aorta tissue sections [4]: no staining; also recorded: no binding

Substance: TSPQTKDC [Peptide 7]
positive binding / staining on WHHL tissue samples ([1]; Exp201 (FIG. 18)): showed staining on one tissue sample
positive binding / staining on WHHL tissue samples ([1]; Exp217 (FIG. 19)): slight staining
binding to aorta after in vivo circulation of peptide [3]: did not yield positive results

Substance: Biotin-RNPGYTYHIALG [Peptide 4R]
staining on WHHL tissue, original versus randomized sequence [1]: much less staining compared to the original sequences
